Assay results reported in paper PMC8752759, “GSNOR regulates ganoderic acid content in Ganoderma lucidum under heat stress through S-nitrosylation of catalase” (Communications Biology, 2022).

What was measured:
Type in all cases: biochemical
CAT (catalase) [1] = molecular target: T1, CAT (catalase) (Ganoderma lucidum, UniProt A0A223M0M1, C671S); experiment: biotin-switch immunoblot; CAT activity by H2O2 decomposition at […] nm; conditions: covalent; S-nitrosylation; room temperature, dark, 60 min
T1 construct: recombinant, pColdI vector, His-tagged, E. coli BL21(DE3), Ni-NTA purified; 6 cysteine residues

CAT (catalase) [2] = molecular target: T2, CAT (catalase) (Ganoderma lucidum, UniProt A0A223M0M1); experiment: biotin-switch immunoblot, LC-MS/MS of sites; CAT activity by H2O2 decomposition at […] nm; conditions: covalent; S-nitrosylation at Cys401, Cys642, Cys653; room temperature, dark, 60 min; activating
T2 construct: recombinant, pColdI vector, His-tagged, E. coli BL21(DE3), Ni-NTA purified; 6 cysteine residues

CAT (catalase) [3] = molecular target: T3, CAT (catalase) (Ganoderma lucidum, UniProt A0A223M0M1, C660S); experiment: biotin-switch immunoblot; CAT activity by H2O2 decomposition at […] nm; conditions: covalent; S-nitrosylation; room temperature, dark, 60 min
T3 construct: recombinant, pColdI vector, His-tagged, E. coli BL21(DE3), Ni-NTA purified; 6 cysteine residues

CAT (catalase) [4] = molecular target: T4, CAT (catalase) (Ganoderma lucidum, UniProt A0A223M0M1, C419S); experiment: as above; conditions: covalent; S-nitrosylation; room temperature, dark, 60 min
T4 construct: recombinant, pColdI vector, His-tagged, E. coli BL21(DE3), Ni-NTA purified; 6 cysteine residues
T4 sequence (A0A223M0M1 entry or part of it C419S): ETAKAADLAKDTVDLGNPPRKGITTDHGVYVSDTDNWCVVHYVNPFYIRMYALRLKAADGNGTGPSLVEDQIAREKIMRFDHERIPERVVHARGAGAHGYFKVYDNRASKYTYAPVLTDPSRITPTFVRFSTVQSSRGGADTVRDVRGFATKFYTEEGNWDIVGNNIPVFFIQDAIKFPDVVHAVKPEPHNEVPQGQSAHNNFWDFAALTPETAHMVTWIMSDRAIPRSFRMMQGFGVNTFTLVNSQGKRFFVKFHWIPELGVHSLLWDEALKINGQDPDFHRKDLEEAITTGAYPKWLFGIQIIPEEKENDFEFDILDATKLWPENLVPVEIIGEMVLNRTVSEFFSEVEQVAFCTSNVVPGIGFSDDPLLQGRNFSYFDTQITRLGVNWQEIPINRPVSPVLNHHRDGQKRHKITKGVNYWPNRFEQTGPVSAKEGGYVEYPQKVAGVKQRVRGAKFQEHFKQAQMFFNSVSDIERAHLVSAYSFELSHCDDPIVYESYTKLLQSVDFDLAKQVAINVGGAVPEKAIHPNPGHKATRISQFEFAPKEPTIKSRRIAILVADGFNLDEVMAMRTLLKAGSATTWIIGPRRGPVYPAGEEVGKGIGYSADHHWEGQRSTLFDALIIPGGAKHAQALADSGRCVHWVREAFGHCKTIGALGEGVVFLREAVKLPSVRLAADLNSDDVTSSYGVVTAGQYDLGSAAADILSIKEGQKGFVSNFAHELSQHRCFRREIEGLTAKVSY

T1 sequence (A0A223M0M1 entry or part of it C671S): as the sequence (A0A223M0M1 entry or part of it C419S) above, with S401C, C653S counted along it
T3 sequence (A0A223M0M1 entry or part of it C660S): as the sequence (A0A223M0M1 entry or part of it C419S) above, with S401C, C642S counted along it
T2 sequence (A0A223M0M1 entry or part of it): as the sequence (A0A223M0M1 entry or part of it C419S) above, with S401C counted along it

## N[C@@H](CCC(=O)N[C@@H](CSN=O)C(=O)NCC(=O)O)C(=O)O [GSNO, S-nitrosoglutathione]
CAT (catalase) [1]
  biotin-switch immunoblot; CAT activity by H2O2 decomposition at 240 nm: The C401S, C642S, and C653S single mutants
CAT (catalase) [2]
  biotin-switch immunoblot, LC-MS/MS of sites; CAT activity by H2O2 decomposition: CAT was S-nitrosylated, which was induced by GSNO
CAT (catalase) [3]
  biotin-switch immunoblot; CAT activity by H2O2 decomposition at 240 nm: The C401S, C642S, and C653S single mutants
CAT (catalase) [4]
  biotin-switch immunoblot; CAT activity by H2O2 decomposition at 240 nm: The C401S, C642S, and C653S single mutants
